Test results: patent publication US12319655B2, “RAF kinase inhibitors and methods of use thereof” (Deciphera Pharmaceuticals, LLC, priority 2021, dated 2025)
Where two headings read alike, the source gives them in different places.

Key:
[1] = molecular target: B-Raf (V600E) (SEQ. ID NO: 4) kinase (Homo sapiens (Human), UniProt P15056, V600E); test: Biochemical Assay for B-Raf (V600E) (1); conditions: Table J, BRAF V600E
Procedure, shortened: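 Serially diluted compounds tested against 0.03 nM enzyme with 30.1 nM MEK substrate and 1 mM ATP (Tris pH 7.5, 15 mM MgCl2), ATP use coupled to NADH loss via PK/LDH. A340 monitored continuously 6 h, 30 °C; IC50 fitted (four-parameter) from the 3–4 h rate versus no-compound and known-inhibitor controls.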

[2] = molecular target: B-Raf kinase (SEQ. ID NO: 2) (Homo sapiens (Human), UniProt P15056); test: Biochemical Assay for B-Raf (1); conditions: Table J
Sequence of B-Raf kinase (SEQ. ID NO: 2) (P15056 416-766): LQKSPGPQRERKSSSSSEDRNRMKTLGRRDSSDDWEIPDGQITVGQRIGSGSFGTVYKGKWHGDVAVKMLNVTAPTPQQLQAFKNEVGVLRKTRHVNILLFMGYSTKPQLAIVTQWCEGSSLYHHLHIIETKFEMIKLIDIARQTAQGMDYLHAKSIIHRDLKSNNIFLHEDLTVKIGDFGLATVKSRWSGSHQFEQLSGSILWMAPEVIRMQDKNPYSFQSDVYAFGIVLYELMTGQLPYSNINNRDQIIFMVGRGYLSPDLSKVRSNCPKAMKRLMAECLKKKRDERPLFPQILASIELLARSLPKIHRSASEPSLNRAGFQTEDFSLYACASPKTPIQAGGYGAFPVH
Procedure, shortened: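 IC50 derived by four-parameter sigmoidal fit of percent inhibition, normalised to uninhibited and reference-inhibitor controls, using reaction rates over 4–5 h. Coupled spectrophotometric readout (NADH loss at 340 nm, 6 h, 30° C.); 1 mM ATP, 30.1 nM MEK, 0.13 nM B-Raf, pH 7.5 Tris buffer, 1% DMSO.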

Miapaca-2 cells = test: MiaPaca-2 Cell Proliferation Assay (1); format: cell-based; conditions: Homo sapiens, MIA PaCa-2, single agent, read-out: MiaPaca2 (1) IC50
Procedure, shortened: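 Resazurin was added after compound exposure and incubated 5-6 h, then fluorescence read at 540 nm excitation and 600 nm emission to give IC50.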

H2405 cells = test: H2405 Cell Proliferation Assay (1); format: cell-based; conditions: Homo sapiens, NCI-H2405
Procedure, shortened: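 Viability was read by resazurin reduction (ex 540 nm, em 600 nm; 5-6 h with 40 μL of 440 μM stock) after 67-72 h compound exposure at 37 °C.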

[3] = assay version (1), read-out: BRAF VE (1) IC50
[4] = assay version (1), read-out: BRAF (1) IC50
[5] = biochemical assay (1), read-out: BRAF VE (1)
[6] = biochemical assay (1), read-out: BRAF (1)

Sequence of B-Raf (V600E) (SEQ. ID NO: 4) kinase (P15056 416-766 V600E): as the sequence (P15056 416-766) above, with V185E counted along it

SMILES	IC50 [1, 3] [nM]	IC50 [2, 4] [nM]	IC50 (Miapaca-2 cells) [nM]	IC50 (H2405 cells) [nM]	IC50 [1, 5] [nM]	IC50 [2, 6] [nM]
CC(=O)Nc1cc(-c2cc(-c3cc(NC(=O)c4ccnc(C(F)(F)F)c4)ccc3C)cc(OCCO)n2)ccn1 [Example 1, N-(3-(2′-acetamido-6-(2-hydroxyethoxy)-[2,4′-bipyridin]-4-yl)-4-methylphenyl)-2-(trifluoromethyl)isonicotinamide]	≤ 100	≤ 100	100 to 500	–	–	–
CC(=O)Nc1cc(-c2cc(-c3cc(NC(=O)c4ccnc(C(F)(F)F)c4)c(F)cc3C)ccn2)ccn1 [Example 2]	≤ 100	≤ 100	1000 to 10000	–	–	–
CC(=O)Nc1cc(-c2cc(-c3cc(NC(=O)c4cccc(C)c4)ccc3C)ccn2)ccn1 [Example 32]	≤ 100	≤ 100	1000 to 10000	–	–	–
Cc1cc(F)c(NC(=O)c2ccnc(C(F)(F)F)c2)cc1-c1ccnc(-c2ccnc(NC=O)c2)c1 [Example 35]	≤ 100	≤ 100	1000 to 10000	–	–	–
CC(=O)Nc1cc(-c2cc(-c3cc(NC(=O)c4ccnc(C(F)(F)F)c4)cnc3C)ccn2)ccn1 [Example 36]	≤ 100	≤ 100	1000 to 10000	–	–	–
CC(=O)Nc1cc(-c2cc(-c3cc(NC(=O)c4cccc(C(F)(F)F)c4)cnc3C)ccn2)ccn1 [Example 37]	≤ 100	≤ 100	1000 to 10000	–	–	–
Cc1ccc(NC(=O)c2ccnc(C(F)(F)F)c2)cc1-c1ccnc(-c2ccnc(NC(=O)CC#N)c2)c1 [Example 39, N-(3-(2′-(2-cyanoacetamido)-[2,4′-bipyridin]-4-yl)-4-methylphenyl)-2-(trifluoromethyl)isonicotinamide]	≤ 100	≤ 100	1000 to 10000	–	–	–
CNC(=O)c1cc(-c2cc(-c3cc(NC(=O)c4ccnc(C)c4)ccc3C)ccn2)ccn1 [Example 40]	≤ 100	≤ 100	1000 to 10000	–	–	–
Cc1ccc(NC(=O)c2ccnc(C(C)(C)C#N)c2)cc1-c1cncc(-c2ccnc3c2CC(=O)N3)n1 [Example 43]	≤ 100	≤ 100	1000 to 10000	–	–	–
Cc1ccc(NC(=O)c2ccnc(C(F)(F)F)c2)cc1-c1ccnc(-c2ccnc(NC=O)c2)c1 [Example 46]	≤ 100	≤ 100	1000 to 10000	–	–	–
CNC(=O)c1cc(-c2cncc(-c3cc(NC(=O)c4ccnc(C(F)(F)F)c4)ccc3C)n2)ccn1 [Example 47]	≤ 100	≤ 100	1000 to 10000	–	–	–
Cc1cc(-c2cc(-c3cc(NC(=O)c4ccnc(C(C)(C)C#N)c4)ccc3C)ccn2)ccn1 [Example 49]	≤ 100	100 to 500	1000 to 10000	–	–	–
COCC(=O)Nc1cc(-c2cccc(-c3cc(NC(=O)c4ccnc(C(F)(F)F)c4)ccc3C)c2)ccn1 [Example 57]	≤ 100	≤ 100	1000 to 10000	–	–	–
CC(=O)Nc1cc(-c2cc(-c3cc(NC(=O)c4ccnc(C)c4)ccc3C)ncn2)ccn1 [Example 59]	≤ 100	≤ 100	1000 to 10000	–	–	–
CNC(=O)c1cc(-c2cc(-c3cc(NC(=O)c4ccnc(C)c4)ccc3C)ncn2)ccn1 [Example 60]	≤ 100	100 to 500	1000 to 10000	–	–	–
COCC(=O)Nc1cc(-c2cc(-c3cc(NC(=O)c4ccnc(C(C)(C)C#N)c4)ccc3C)ccn2)ccn1 [Example 61]	≤ 100	≤ 100	1000 to 10000	–	–	–
Cc1ccc(NC(=O)c2ccnc(C(F)(F)F)c2)cc1-c1cccc(-c2ccnc(NC(=O)CC#N)c2)c1 [Example 62]	≤ 100	≤ 100	1000 to 10000	–	–	–
Cc1ccc(NC(=O)c2ccnc(C(C)(C)C#N)c2)cc1-c1ccnc(-c2ccnc(NC(=O)CC#N)c2)c1 [Example 63]	≤ 100	≤ 100	1000 to 10000	–	–	–
CC(=O)Nc1cc(-c2cccc(-c3cc(NC(=O)c4ccnc(C(F)(F)F)c4)cnc3C)c2)ccn1 [Example 64]	≤ 100	≤ 100	1000 to 10000	–	–	–
CC(=O)Nc1cc(-c2cc(-c3cc(NC(=O)c4ccnc(C(F)(F)F)c4)ccc3F)cc(C)n2)ccn1 [Example 65]	≤ 100	≤ 100	1000 to 10000	–	–	–
Cc1ncc(NC(=O)c2ccnc(C(F)(F)F)c2)cc1-c1cccc(-c2ccnc(NC(=O)C3CC3)c2)c1 [Example 70]	≤ 100	≤ 100	1000 to 10000	–	–	–
Cc1cc(-c2cc(NC(=O)c3ccnc(C(F)(F)F)c3)ccc2F)cc(-c2ccnc(NC(=O)C3CC3)c2)n1 [Example 72]	≤ 100	≤ 100	1000 to 10000	–	–	–
CNC(=O)c1cc(-c2cccc(-c3cc(NC(=O)c4ccnc(C(F)(F)F)c4)cnc3C)c2)ccn1 [Example 73]	≤ 100	100 to 500	1000 to 10000	–	–	–
CC(=O)Nc1cc(-c2cc(-c3cc(NC(=O)c4ccnc(C(C)(C)C#N)c4)c(F)cc3C)ccn2)ccn1 [Example 75]	≤ 100	≤ 100	1000 to 10000	–	–	–
Cc1cc(F)c(NC(=O)c2ccnc(C(C)(C)C#N)c2)cc1-c1ccnc(-c2ccnc(NC(=O)C3CC3)c2)c1 [Example 76]	≤ 100	≤ 100	1000 to 10000	–	–	–
CNC(=O)c1cc(-c2nccc(-c3cc(NC(=O)c4ccnc(C(C)(C)C#N)c4)ccc3C)n2)ccn1 [Example 78]	≤ 100	100 to 500	1000 to 10000	–	–	–
CC(=O)Nc1cc(-c2cccc(-c3cc(NC(=O)c4ccnc(C(C)(C)C#N)c4)ccc3C)c2)ncn1 [Example 79]	≤ 100	≤ 100	1000 to 10000	–	–	–
CNC(=O)c1cc(-c2cncc(-c3cc(C(=O)Nc4cnn(C(C)C)c4)ccc3C)n2)ccn1 [Example 81]	≤ 100	100 to 500	–	1000 to 10000	–	–
CC(=O)Nc1cc(-c2cc(-c3cc(NC(=O)c4ccnc(C(F)(F)F)c4)ccc3C)nc(C)n2)ccn1 [Example 83]	≤ 100	≤ 100	1000 to 10000	–	–	–
CC(=O)Nc1cc(-c2cc(-c3cc(NC(=O)c4ccnc(C(F)(F)F)c4)ccc3C)ncn2)ccn1 [Example 84]	≤ 100	≤ 100	1000 to 10000	–	–	–

The next lines start with the values.

IC50 [1, 3] [nM]	IC50 [2, 4] [nM]	IC50 (Miapaca-2 cells) [nM]	IC50 (H2405 cells) [nM]	IC50 [1, 5] [nM]	IC50 [2, 6] [nM]	SMILES
≤ 100	≤ 100	1000 to 10000	–	–	–	CC(=O)Nc1cc(-c2cncc(-c3cc(C(=O)Nc4cnn(C(C)C)c4)ccc3C)n2)ccn1 [Example 87]
≤ 100	≤ 100	1000 to 10000	–	–	–	COCC(=O)Nc1cc(-c2nccc(-c3cc(NC(=O)c4ccnc(C(C)(C)C#N)c4)ccc3C)n2)ccn1 [Example 88]
≤ 100	100 to 500	1000 to 10000	–	–	–	CC(=O)Nc1cc(-c2cc(-c3cc(NC(=O)c4ccnc(C(C)(C)C#N)c4)ccc3C)nc(C)n2)ccn1 [Example 89]
≤ 100	100 to 500	1000 to 10000	–	–	–	Cc1ccc(NC(=O)c2ccnc(C(F)(F)F)c2)cc1-c1cncc(-c2ccnc(N)c2)n1 [Example 90]
≤ 100	≤ 100	1000 to 10000	–	–	–	CC(=O)Nc1cc(-c2ccnc(-c3cc(NC(=O)c4ccnc(C(F)(F)F)c4)ccc3C)n2)ccn1 [Example 92]
–	–	–	1000 to 10000	100 to 500	≤ 100	Cc1ccc(NC(=O)c2cn(C(C)C)nc2C)cc1-c1cc(-c2ccnc(NC(=O)C3CC3)c2)cnn1 [Example 373]
–	–	–	1000 to 10000	1000 to 10000	1000 to 10000	CNC(=O)c1cc(-c2cnnc(-c3cc(NC(=O)CCC4(F)CC4)cnc3C)c2)ccn1 [Example 374]
–	–	–	100 to 500	≤ 100	≤ 100	COC(=O)Nc1cc(-c2cnnc(-c3cc(NC(=O)c4ccnc(C(C)(C)F)c4)ccc3C)c2)ccn1 [Example 375]
–	–	–	100 to 500	≤ 100	100 to 500	CNC(=O)c1cc(-c2ccnc(-c3cc(NC(=O)c4ccnc(C(C)(C)C#N)c4)ccc3C)c2)ccn1 [Example 376]
–	–	–	100 to 500	≤ 100	≤ 100	Cc1ccc(NC(=O)c2cc(C3CC3)n(C)n2)cc1-c1cc(-c2ccnc(NC(=O)C3CC3)c2)cnn1 [Example 377]
–	–	–	100 to 500	≤ 100	100 to 500	CNC(=O)c1cc(-c2ccnc(-c3cc(NC(=O)c4ccnc(C(C)(C)F)c4)ccc3C)c2)ccn1 [Example 378]
–	–	–	100 to 500	≤ 100	≤ 100	Cc1ccc(NC(=O)c2ccnc(C(C)(C)F)c2)cc1-c1cncc(-c2ccnc(C(N)=O)c2)c1 [Example 380]
–	–	–	1000 to 10000	100 to 500	100 to 500	Cc1ccc(NC(=O)c2cnn(CC(F)(F)F)c2)cc1-c1cncc(-c2ccnc(C(N)=O)c2)c1 [Example 381]
–	–	–	1000 to 10000	100 to 500	100 to 500	CNC(=O)c1cc(-c2cncc(-c3cc(NC(=O)c4cnn(CC(F)(F)F)c4)ccc3C)c2)ncn1 [Example 382]
–	–	–	1000 to 10000	1000 to 10000	100 to 500	CNC(=O)c1cc(-c2cncc(-c3cc(NC(=O)Cn4cc(C(C)C)nn4)ccc3C)c2)ncn1 [Example 383]
